Assay results from EP2604596A1, “Polymorphs of imatinib” (priority 2011, dated 2013).

Experiment: Non-hygroscopicity test (storage in stability chambers, water content)
Type: physicochemical
Conditions: mesylate; for Water Content after 3 months (%): 40°C at humidity of 75%, for 3 months; for Initial Water Content (%): before storage
Method: In the present invention, samples of obtained crystalline forms are stored […] in stability chambers under following conditions of 40°C and humidity of 75%, for 3 months to support non-hygroscopic nature of novel forms of imatinib mesylate.
Non-hygroscopicity test results are listed below in table 1.

Compound | Water Content after 3 months (%) | Initial Water Content (%)
CS(=O)(=O)O.Cc1ccc(NC(=O)c2ccc(CN3CCN(C)CC3)cc2)cc1Nc1nccc(-c2cccnc2)n1 [Polymorph Y sample, 4-[(4-Methyl-1-piperazinyl)methyl]-N-[4-methyl-3-[[4-(3-pyridinyl)-2-pyrimidinyl]amino]phenyl]-benzamide mesylate] | 0.50 | 0.40
CS(=O)(=O)O.Cc1ccc(NC(=O)c2ccc(CN3CCN(C)CC3)cc2)cc1Nc1nccc(-c2cccnc2)n1 [Polymorph P sample, 4-[(4-Methyl-1-piperazinyl)methyl]-N-[4-methyl-3-[[4-(3-pyridinyl)-2-pyrimidinyl]amino]phenyl]-benzamide mesylate] | 0.50 | 0.42
CS(=O)(=O)O.Cc1ccc(NC(=O)c2ccc(CN3CCN(C)CC3)cc2)cc1Nc1nccc(-c2cccnc2)n1 [Polymorph B sample, 4-[(4-Methyl-1-piperazinyl)methyl]-N-[4-methyl-3-[[4-(3-pyridinyl)-2-pyrimidinyl]amino]phenyl]-benzamide mesylate] | 0.48 | 0.37
CS(=O)(=O)O.Cc1ccc(NC(=O)c2ccc(CN3CCN(C)CC3)cc2)cc1Nc1nccc(-c2cccnc2)n1 [Polymorph M sample, 4-[(4-Methyl-1-piperazinyl)methyl]-N-[4-methyl-3-[[4-(3-pyridinyl)-2-pyrimidinyl]amino]phenyl]-benzamide mesylate] | 0.48 | 0.38
CS(=O)(=O)O.Cc1ccc(NC(=O)c2ccc(CN3CCN(C)CC3)cc2)cc1Nc1nccc(-c2cccnc2)n1 [Polymorph β reference sample, 4-[(4-Methyl-1-piperazinyl)methyl]-N-[4-methyl-3-[[4-(3-pyridinyl)-2-pyrimidinyl]amino]phenyl]-benzamide mesylate, reference compound] | 0.60 | 0.34
